One experiment has as its target T1, TBK1 (Homo sapiens, UniProt Q9UHD2).
T1 construct: purchased Promega V3991
T1 sequence (Q9UHD2 1-729): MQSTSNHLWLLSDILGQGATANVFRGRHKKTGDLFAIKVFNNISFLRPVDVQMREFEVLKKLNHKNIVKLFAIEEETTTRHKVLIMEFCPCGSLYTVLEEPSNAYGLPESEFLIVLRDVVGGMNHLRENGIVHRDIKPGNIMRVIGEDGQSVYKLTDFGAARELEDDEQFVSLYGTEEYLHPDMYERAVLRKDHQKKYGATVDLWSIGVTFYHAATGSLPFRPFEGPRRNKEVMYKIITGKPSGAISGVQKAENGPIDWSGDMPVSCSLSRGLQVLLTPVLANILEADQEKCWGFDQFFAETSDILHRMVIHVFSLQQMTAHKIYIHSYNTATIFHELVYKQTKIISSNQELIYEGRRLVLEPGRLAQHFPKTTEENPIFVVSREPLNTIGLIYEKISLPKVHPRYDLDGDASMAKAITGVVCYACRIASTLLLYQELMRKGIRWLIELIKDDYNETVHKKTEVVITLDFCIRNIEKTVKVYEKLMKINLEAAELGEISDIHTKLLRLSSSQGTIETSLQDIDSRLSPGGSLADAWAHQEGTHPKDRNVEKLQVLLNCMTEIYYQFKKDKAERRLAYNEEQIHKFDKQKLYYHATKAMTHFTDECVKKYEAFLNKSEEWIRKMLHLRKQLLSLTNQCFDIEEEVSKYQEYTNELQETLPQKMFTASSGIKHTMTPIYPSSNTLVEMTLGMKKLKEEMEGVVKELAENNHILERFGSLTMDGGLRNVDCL
As to the kind of experiment: TBK1 inhibition, ADP-Glo Kinase Assay. The experiment is classed as biochemical. The conditions noted are these: luminometer. Here is the method:
(§1) Inhibition activities on TNIK, IKKε and TBK1 were evaluated using the compounds of Examples 1 to 254.
(§2) The inhibition activities on TNIK, IKKε and TBK1 were measured by a luminometer, TNIK/IKKε/TBK1 Kinase Enzyme System (Promega, Ca# V4158; Invitrogen, PR8031B, Promega, Ca# V3991) and ADP-Glo Kinase Assay using ADP-Glo™ Kinase Analysis Kit (Promega, Ca# V9101) and a kinase reaction buffer [40 mM Tris(pH 7.5), 20 mM MgCl2, 0.1 mg/mL BSA] in accordance with the manufacturer's protocol.

A further experiment deals with T2, IKKε (Homo sapiens, UniProt Q14164).
T2 construct: purchased Invitrogen PR8031B
T2 sequence (Q14164 1-716): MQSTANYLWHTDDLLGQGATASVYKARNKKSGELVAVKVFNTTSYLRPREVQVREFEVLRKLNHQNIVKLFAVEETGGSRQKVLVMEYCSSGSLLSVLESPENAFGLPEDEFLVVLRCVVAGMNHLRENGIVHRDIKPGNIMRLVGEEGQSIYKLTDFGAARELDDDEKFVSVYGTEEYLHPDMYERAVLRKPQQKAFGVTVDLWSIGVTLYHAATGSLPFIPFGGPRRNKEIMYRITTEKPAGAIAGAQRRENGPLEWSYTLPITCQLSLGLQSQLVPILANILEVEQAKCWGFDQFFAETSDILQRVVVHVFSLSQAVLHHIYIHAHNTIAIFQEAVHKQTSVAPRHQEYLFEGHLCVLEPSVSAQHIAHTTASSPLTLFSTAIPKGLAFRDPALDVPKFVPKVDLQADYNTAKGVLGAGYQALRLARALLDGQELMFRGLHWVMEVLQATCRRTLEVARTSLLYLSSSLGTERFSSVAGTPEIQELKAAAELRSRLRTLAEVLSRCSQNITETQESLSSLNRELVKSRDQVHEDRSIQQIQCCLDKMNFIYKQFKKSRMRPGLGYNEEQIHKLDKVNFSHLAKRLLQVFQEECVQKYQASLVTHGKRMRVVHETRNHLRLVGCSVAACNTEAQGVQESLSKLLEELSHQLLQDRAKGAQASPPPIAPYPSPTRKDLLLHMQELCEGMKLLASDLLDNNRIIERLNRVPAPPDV
As to the kind of experiment: IKKε inhibition, ADP-Glo Kinase Assay. Format: biochemical. As to conditions: luminometer. Here is the method: as §1, §2

Where a name gives a salt, the structure may show the parent alone.

`CN1CCN(c2ccc(C(=O)Nc3n[nH]c4ccc(C(=O)NCc5cccc(F)c5)cc34)cc2)CC1` [Example 195, N-(3-Fluorobenzyl)-3-(4-(4-methylpiperazin-1-yl)benzamido)-1H-indazole-5-carboxamide]: the IC50 stood at 0.0072 µM against TBK1 and 0.05 µM against IKKε.

Regarding `O=C(NCC1CCCC1)c1ccc2[nH]nc(NC(=O)c3ccc(N4CCOCC4)cc3)c2c1` [Example 91, N-(Cyclopentylmethyl)-3-(4-morpholinobenzamido)-1H-indazole-5-carboxamide 2,2,2-trifluoroacetate], the IC50 on TBK1 was found to be 0.0053 µM; at IKKε it was 0.093 µM. Taken in the same sequence, the figures for `Cc1ccc(CNC(=O)c2ccc3[nH]nc(NC(=O)c4ccc(F)cc4)c3c2)s1` [Example 19, 3-(4-Fluorobenzamido)-N-((5-methylthiophen-2-yl)methyl)-1H-indazole-5-carboxamide] were 0.49 µM and 2.91 µM.

Regarding `CC(NC(=O)c1ccc2[nH]nc(NC(=O)c3ccc(N4CCN[C@H](C)C4)cc3)c2c1)c1ccccc1` (stereo partly drawn) [Example 185, 3-(4-((R)-3-Methylpiperazin-1-yl)benzamido)-N-(1-phenylethyl)-1H-indazole-5-carboxamide 2,2,2-trifluoroacetate], the IC50 against TBK1 was found to be 0.0033 µM; on IKKε it was 0.019 µM. Taken in the same sequence, the figures for `CC(C)CCNC(=O)c1ccc2[nH]nc(NC(=O)c3ccc(F)cc3)c2c1` [Example 25, 3-(4-Fluorobenzamido)-N-isopentyl-1H-indazole-5-carboxamide] were 0.42 µM and 5.87 µM. The like results for `O=C(NCc1ccco1)c1ccc2[nH]nc(NC(=O)c3ccc(N4CCOCC4)cc3)c2c1` [Example 50, N-(Furan-2-ylmethyl)-3-(4-morpholinobenzamido)-1H-indazole-5-carboxamide] were, in that order, 0.0058 µM and 0.037 µM. Taken in the same sequence, the figures for `Cc1cc(CNC(=O)c2ccc3[nH]nc(NC(=O)c4ccc(N5CCOCC5)cc4)c3c2)ccn1` [Example 69, N-((2-Methylpyridin-4-yl)methyl)-3-(4-morpholinobenzamido)-1H-indazole-5-carboxamide] were 0.38 µM and 2.72 µM. Take `CCC(NC(=O)c1ccc2[nH]nc(NC(=O)c3ccc(N4CCN[C@H](C)C4)cc3)c2c1)c1cccs1` (stereo partly drawn) [Example 98, 3-(4-((R)-3-Methylpiperazin-1-yl)benzamido)-N-(1-(thiophen-2-yl)propyl)-1H-indazole-5-carboxamide 2,2,2-trifluoroacetate]: the IC50 stood at 0.003 µM on TBK1 and 0.023 µM on IKKε. Consider `O=C(NCc1cccs1)c1ccc2[nH]nc(NC(=O)c3cccc(N4CCOCC4)c3)c2c1` [Example 156, 3-(3-Morpholinobenzamido)-N-(thiophen-2-ylmethyl)-1H-indazole-5-carboxamide], for which the values for the IC50 against TBK1 and against IKKε were 0.077 µM and 0.29 µM, respectively. Regarding `CC(CCO)NC(=O)c1ccc2[nH]nc(NC(=O)c3ccc(N4CCN(C)CC4)cc3)c2c1` (stereo not shown) [Example 93, N-(4-Hydroxybutan-2-yl)-3-(4-(4-methylpiperazin-1-yl)benzamido)-1H-indazole-5-carboxamide], the IC50 at TBK1 worked out at 0.19 µM; on IKKε it was 1.04 µM. The like results for `Cc1noc(CNC(=O)c2ccc3[nH]nc(NC(=O)c4ccc(N5CCOCC5)cc4)c3c2)n1` [Example 100, N-((3-Methyl-1,2,4-oxadiazol-5-yl)methyl)-3-(4-morpholinobenzamido)-1H-indazole-5-carboxamide 2,2,2-trifluoroacetate] were, in that order, 0.22 µM and 0.95 µM. Taken in the same sequence, the figures for `CN1CCN(c2ccc(C(=O)Nc3n[nH]c4ccc(C(=O)NCc5ccc(C(F)(F)F)cc5)cc34)cc2)CC1` [Example 66, 3-(4-(4-Methylpiperazin-1-yl)benzamido)-N-(4-(trifluoromethyl)benzyl)-1H-indazole-5-carboxamide] were 0.98 µM and 3.19 µM. Take `CN1CCN(c2ccc(C(=O)Nc3n[nH]c4ccc(C(=O)NC(C)(C)c5cccs5)cc34)cc2)CC1` [Example 136, 3-(4-(4-Methylpiperazin-1-yl)benzamido)-N-(2-(thiophen-2-yl)propan-2-yl)-1H-indazole-5-carboxamide]: the half-maximal inhibitory concentration (IC50) is 0.0057 µM against TBK1 and 0.024 µM against IKKε. Taken in the same sequence, the figures for `O=C(Nc1n[nH]c2ccc(C(=O)NC3(c4cccs4)CC3)cc12)c1ccc(F)cc1` [Example 15, 3-(4-Fluorobenzamido)-N-(1-(thiophen-2-yl)cyclopropyl)-1H-indazole-5-carboxamide] were 0.025 µM and 0.055 µM. The like results for `CN1CCN(c2ccc(C(=O)Nc3n[nH]c4ccc(C(=O)NCc5ncon5)cc34)cc2)CC1` [Example 118] were, in that order, 0.3 µM and 1.96 µM. Taken in the same sequence, the figures for `CN1CCN(c2ccc(C(=O)Nc3n[nH]c4ccc(C(=O)NC5(c6ccccc6)CC5)cc34)cc2)CC1` [Example 68, 3-(4-(4-Methylpiperazin-1-yl)benzamido)-N-(1-phenylcyclopropyl)-1H-indazole-5-carboxamide] were 0.0006 µM and 0.0042 µM.

`O=C(NCc1ccccn1)c1ccc2[nH]nc(NC(=O)c3ccc(N4CCOCC4)cc3)c2c1` [Example 86, 3-(4-Morpholinobenzamido)-N-(pyridin-2-ylmethyl)-1H-indazole-5-carboxamide]: the IC50 is 0.089 µM at TBK1 and 0.45 µM against IKKε. As to `CCC(NC(=O)c1ccc2[nH]nc(NC(=O)c3ccc(N4CCN[C@@H](C)C4)cc3)c2c1)c1cccs1` (stereo partly drawn) [Example 97, 3-(4-((S)-3-Methylpiperazin-1-yl)benzamido)-N-(1-(thiophen-2-yl)propyl)-1H-indazole-5-carboxamide 2,2,2-trifluoroacetate], the values for the IC50 on TBK1 and on IKKε were 0.0028 µM and 0.016 µM, respectively. The like results for `O=C(NCc1cccs1)c1ccc2[nH]nc(NC(=O)c3ccc(-n4ccnc4)cc3)c2c1` [Example 212, 3-(4-(1H-Imidazol-1-yl)benzamido)-N-(thiophen-2-ylmethyl)-1H-indazole-5-carboxamide] were, in that order, 0.078 µM and 0.36 µM. `O=C(Nc1n[nH]c2ccc(C(=O)NC(c3cccs3)C3CC3)cc12)c1ccc(N2CCNCC2)cc1` (stereo not shown) [Example 126, N-(Cyclopropyl(thiophen-2-yl)methyl)-3-(4-(piperazin-1-yl)benzamido)-1H-indazole-5-carboxamide]: the results for the half-maximal inhibitory concentration (IC50) on TBK1 and on IKKε were 0.019 µM and 0.013 µM, respectively. Take `CC(NC(=O)c1ccc2[nH]nc(NC(=O)c3ccc(N4CCN(C)CC4)cc3)c2c1)c1ccncc1` (stereo not shown) [Example 133, 3-(4-(4-Methylpiperazin-1-yl)benzamido)-N-(1-(pyridin-4-yl)ethyl)-1H-indazole-5-carboxamide]: the figures for the IC50 on TBK1 and against IKKε were 0.028 µM and 0.053 µM, respectively. The like results for `O=C(NCc1cccs1)c1ccc2[nH]nc(NC(=O)c3ccc(OCCN4CCOCC4)cc3)c2c1` [Example 201, 3-(4-(2-Morpholinoethoxy)benzamido)-N-(thiophen-2-ylmethyl)-1H-indazole-5-carboxamide] were, in that order, 0.003 µM and 0.038 µM. For `O=C(Nc1n[nH]c2ccc(CNCc3cccs3)cc12)c1ccc(F)cc1` [Example 31, 4-Fluoro-N-(5-(((thiophen-2-ylmethyl)amino)methyl)-1H-indazol-3-yl)benzamide Hydrochloride], the IC50 at TBK1 was more than 10 µM. The same measure, in the same setting: the same measure for `COc1ccc(C(=O)Nc2n[nH]c3ccc(C(=O)N(C)Cc4cccs4)cc23)cc1` [Example 4, 3-(4-Methoxybenzamido)-N-methyl-N-(thiophen-2-ylmethyl)-1H-indazole-5-carboxamide]: 0.83 µM.

Values taken from patent US10294207B2, “Pyrazole derivatives as TNIK, IKKϵ and TBK1 inhibitor and pharmaceutical composition comprising same” (GREEN CROSS CORPORATION, priority 2015, dated 2019).
